Source: patent US6559330B1, “CALCIUM COMPLEX OF [[(4R)-4-[BIS{CARBOXY-.KAPPA.O)METHYL]AMINO-.KAPPA.N]-6,9-BIS[(CARBOXY.KAPPA.O)METHYL]-1-[(4,4-DIPHENYLCYCLOHEXYL)OXY]-1-HYDROXY-2-OXA-6,9-DIAZA-1-PHOSPHAUNDECAN-11-YLIC-ACID-.KAPPA.N6,.KAPPA.N9,.KAPPA.011]1-OXIDATO(6-)]-, HEXAHYDROGEN, ITS SALTS, PHARMACEUTICAL AGENTS THAT …” (Schering Aktiengesellschaft, priority 1999, dated 2003)

Tests used:
[1] = target: human serum albumin (HSA) (Homo sapiens, UniProt P02768); details: cited from earlier work
human serum albumin (HSA), sequence (P02768 25-609): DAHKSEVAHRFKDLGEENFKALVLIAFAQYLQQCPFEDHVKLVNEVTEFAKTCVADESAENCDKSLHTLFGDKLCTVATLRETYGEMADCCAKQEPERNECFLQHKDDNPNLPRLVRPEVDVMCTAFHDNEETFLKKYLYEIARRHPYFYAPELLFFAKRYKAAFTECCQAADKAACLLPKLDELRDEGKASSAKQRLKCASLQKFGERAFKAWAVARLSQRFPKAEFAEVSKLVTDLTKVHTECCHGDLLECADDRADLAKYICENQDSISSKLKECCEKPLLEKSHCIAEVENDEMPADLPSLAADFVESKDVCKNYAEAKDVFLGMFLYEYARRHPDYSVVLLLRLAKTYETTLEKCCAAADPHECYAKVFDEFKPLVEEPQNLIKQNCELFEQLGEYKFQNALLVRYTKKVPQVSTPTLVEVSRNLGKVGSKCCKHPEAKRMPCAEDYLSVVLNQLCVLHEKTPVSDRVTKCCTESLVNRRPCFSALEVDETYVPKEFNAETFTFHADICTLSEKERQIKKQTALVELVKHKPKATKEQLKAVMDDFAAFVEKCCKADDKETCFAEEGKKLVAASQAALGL

[2] = HPLC content of Gd-MS-325 in the formulation after heating (100% method, external standard); assay type: physicochemical
Method: The low content and the yellow coloration indicate decomposition.
For comparison: Content after HPLC/95° C. (6 hours): 98.9%.

[3] = blood pool agent; cited from earlier work

## gadolinato(3-),[[(4R)-4[bis[(carboxy-.kappa.O)methyl]amino-.kappa.N]-6,9-bis[(carboxy-.kappa.O)methyl]-1-[(4,4-diphenylcyclohexyl)oxy]-1-hydroxy-2-oxa-6,9-diaza-1-phosphaundecan-11-ylic-acid-.kappa.N6,.kappa.N9,kappa.011]1-oxidato(6-)]-trihydrogen [Gd-MS-325]
[1]
  binding to human serum albumin (HSA): binds to human serum albumin (HSA)
[2]; 95° C. (6 hours), for comparison
  content of Gd-MS-325 (HPLC): 98.9%
[2]; in-situ formulation refluxed for 48 hours, low content and yellow coloration indicate decomposition
  content of Gd-MS-325 (HPLC): 96.3%
[3]
  retention in the intravascular space: retained in the intravascular space
